Measured values published in PMC2362793, “A novel class of lipophilic quinazoline-based folic acid analogues: cytotoxic agents with a folate-independent locus” (British Journal of Cancer, 1999).

What was measured:
[1] = molecular target: T1, thymidylate synthase (TS) (Mus musculus, UniProt P07607); assay: inhibition of isolated mouse TS activity and inhibition kinetics (IC50 […], Kies […]); type: biochemical
T1 construct: gene Tyms; enzyme partially purified from the L1210:C15 TS-overproducing cell line
T1 sequence (P07607 whole entry): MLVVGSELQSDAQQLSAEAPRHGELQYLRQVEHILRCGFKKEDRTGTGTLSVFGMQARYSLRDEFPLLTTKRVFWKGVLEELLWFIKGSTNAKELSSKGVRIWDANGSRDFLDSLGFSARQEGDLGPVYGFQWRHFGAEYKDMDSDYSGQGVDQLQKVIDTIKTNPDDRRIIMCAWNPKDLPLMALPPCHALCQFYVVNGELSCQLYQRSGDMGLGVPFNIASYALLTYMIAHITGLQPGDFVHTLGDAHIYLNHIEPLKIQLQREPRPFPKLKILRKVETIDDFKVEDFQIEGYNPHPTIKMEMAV

[2] = molecular target: T1, thymidylate synthase (TS); assay: inhibition of isolated mouse TS activity at […] (R,S)-5,10-CH2FH4; type: biochemical

| Structure (SMILES) | Ki [1] | IC50 [2] |
| --- | --- | --- |
| C#CCN(Cc1cc2c(=O)[nH]c(C)nc2cc1Br)c1ccc(C(=O)NCc2ccccn2)cc1 [CB300179] | 0.16 µM | – |
| C#CCN(Cc1cc2c(=O)[nH]c(C)nc2cc1Br)c1ccc(C(=O)NCc2ccncc2)cc1 [CB300189] | – | 0.25 µM |
